Laboratory results as given in patent US6362166B1, “Antipicornaviral compounds and methods for their use and preparation” (Agouron Pharmaceuticals, Inc., priority 1996, dated 2002).
Read-outs that look alike come from different tables or passages of the source.

Tests used:
[1] = target: T1, Recombinant Rhinovirus 3C protease (RVP) serotype-14 (Human rhinovirus 14, UniProt P03303); assay: Inhibition of Rhinovirus Protease (fluorescence resonance energy transfer assay), serotype 14; type: biochemical, human rhinovirus (HRV); conditions: for kinact/KI: pH 7.6, read-out: kobs/I; for kobs/I: progress curves in enzyme start experiments
T1 construct: Recombinant Rhinovirus 3C proteases from serotypes 14, 16, 2 or 89; made in house
T1 sequence (P03303 1538-1719): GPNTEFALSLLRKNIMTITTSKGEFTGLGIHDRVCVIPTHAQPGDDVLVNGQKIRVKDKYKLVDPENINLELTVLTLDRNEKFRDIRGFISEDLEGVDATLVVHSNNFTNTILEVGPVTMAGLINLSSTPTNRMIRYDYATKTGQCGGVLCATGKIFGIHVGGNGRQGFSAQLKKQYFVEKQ

HRV-14 = assay: Antirhinoviral HI-HeLa Cell Culture Assay (Cell Protection Assay, XTT dye reduction); type: cell-based, human rhinovirus (HRV) serotype-14; conditions: HI-HeLa cells infected with HRV-14, m.o.i. 0.13, two days, XTT, read-out: EC50
In short: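 HI-HeLa cells infected with HRV-14 at m.o.i. 0.13 or mock-infected, then incubated with compounds for two days. Cell protection read by XTT/PMS formazan at 450/650 nm; therapeutic index = CC50/EC50.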

[2] = Cytotoxicity in mock-infected HI-HeLa cells (antirhinoviral assay, XTT); type: cell-based; conditions: human
CVB-3 = assay: Anticoxsackieviral HI-HeLa Cell Culture Assay (XTT dye reduction); type: cell-based, Coxsackie strain B-3 (CVB-3); conditions: HI-HeLa cells infected with CVB-3, m.o.i. 0.08, one day
Experimental: (§1) Specifically, HI-HeLa cells were infected wtih […] at a multiplicity of infection (m.o.i.) of 0.08 or mock-infected with medium only. Infected or mock-infected cells were resuspended at 8×10^5 cells per mL and incubated with appropriate concentrations of compound. One day later, XTT/PMS were added to test plates and the amount of formazan produced was quantified spectrophotometrically at 450/650 nm. […] The therapeutic index (TI) was calculated by dividing the CC50 by the EC50.
(§2) The Coxsackie strain B-3 (CVB-3) was purchased from American Type Culture Collection (ATCC). Virus stocks were propgated and antiviral assays were performed in Hi-HeLa cells (ATCC). Cells were grown in Minimal Essential Medium with 10% fetal bovine serum.

HI-HeLa cells [3] = assay: Cytotoxicity in mock-infected HI-HeLa cells (antirhinoviral assay, XTT); type: cell-based
HI-HeLa cells [4] = assay: Cytotoxicity in mock-infected HI-HeLa cells (anticoxsackieviral assay, XTT); type: cell-based
Experimental: as §1, with “The ability of compounds to protect calls against CVB-3 infection was measured by the XTT dye reduction method, which is described in Weislow, O. S., R. Kiser, D. L. Fine, J. Bader, R. H. Shoemaker, and M. R. Boyd, 1989, J. Natl. Cancer Inst. 81:577-586, which is incorporated herein by reference. Specifically,” for “Specifically,”
as §2

[5] = system: Human Rhinovirus-serotype 10 (HRV-10); assay: Normal Human Bronchial Epithelial Cell Assay (MTT); type: cell-based; conditions: normal human bronchial cells, HRV-10 at m.o.i. 10, 3-4 days at 34° C., read-out: ED50 (the source's name)
Experimental: Normal human bronchial cells were obtained from cadavers and cultured. The cells were plated at 2×10^4 per well in a […] plate. They were allowed to adhere and grow for 24 hours in 200 μL of serum-free bronchial/tracheal epithelial cell growth medium at 37° C. with 5% CO2. Human Rhinovirus-serotype 10 (HRV-10) was purchased from American Type Culture Collection (ATCC). To start the assay, the supernatant was removed, and HRV-10 at an m.o.i. of 10 (virus particles/cell) was added to each well along with the appropriate amount of compound of formula I or II. The plate was then incubated at 34° C. After 3 hours the supernatant was removed, and 200 μL of media was added along with the same concentration of compound as used in the beginning of the assay. The plates were incubated for 3-4 days at 34° C. To determine the amount of cell growth, an MTT assay (0.5 mgs/mL), as described in Mosmann, T. J. J. Immunol. Methods 1983, 65, 55-63, which is incorporated herein by reference, was performed on the cells, and the plate was read at an optical density of 540 nm. The compounds were tested against control compound Pirodavir, obtained from Janssen Pharmaceuticals. The EC50 was measured as described above for the HI-HeLa Cell Culture Assay.

[6] = target: T2, Recombinant Rhinovirus 3C protease (RVP) serotype 89 (Human rhinovirus A serotype 89, UniProt P07210); assay: Inhibition of Rhinovirus Protease (fluorescence resonance energy transfer assay), serotype 89; type: biochemical, human rhinovirus (HRV)
T2 construct: Recombinant Rhinovirus 3C proteases from serotypes 14, 16, 2 or 89; made in house
T2 sequence (P07210 1522-1704): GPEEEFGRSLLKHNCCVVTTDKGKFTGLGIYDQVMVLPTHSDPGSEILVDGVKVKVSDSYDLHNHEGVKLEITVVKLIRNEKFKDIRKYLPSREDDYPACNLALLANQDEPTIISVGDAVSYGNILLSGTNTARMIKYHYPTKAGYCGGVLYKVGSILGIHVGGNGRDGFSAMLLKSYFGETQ
Experimental: (§3) Stock solution (50 mM, in DMSO) of various compounds were prepared; dilutions were in the same solvent. Recombinant Rhinovirus 3C proteases from serotypes 14, 16, 2 or 89 were prepared by the following standard chromatographic procedures: (1) ion exchange using Q Sepharose Fast Flow from Pharmacia; (2) affinity chromatography using Affi-Gel Blue from Biorad; and (3) sizing using Sephadex G-100 from Pharmacia. Assays contained 2% DMSO, 50 mM tris pH 7.6, 1 mM EDTA, a compound at the indicated concentrations, approximately 1 μM substrate, and 50-100 nM protease. […] The kobs/I values were obtained from reactions initiated by addition of enzyme rather than substrate. RVP activity is measured in the fluorescence resonance energy transfer assay. The substrate was (N-terminal) DABCYL-([…]Gyl)-EDANS. In the uncleaved peptide, the EDANS fluorescence was quenched by the proximal DABCYL moeity. When the peptide was cleaved, the quenching was relieved, and activity was measured as an increase in fluorescence signal.
In the above table, all data is RVP serotype-14 unless otherwise noted in parentheses. […] The data in the column designated kobs/I was measured from progress curves in enzyme start experiments.

[7] = target: T3, Recombinant Rhinovirus 3C protease (RVP) serotype 16 (Human rhinovirus 16, UniProt Q82122); assay: Inhibition of Rhinovirus Protease (fluorescence resonance energy transfer assay), serotype 16; type: biochemical, human rhinovirus (HRV); conditions: pH 7.6; RVP serotype 16; progress curves in enzyme start experiments; read-out: kobs/I
T3 construct: Recombinant Rhinovirus 3C proteases from serotypes 14, 16, 2 or 89; made in house
T3 sequence (Q82122 1511-1693): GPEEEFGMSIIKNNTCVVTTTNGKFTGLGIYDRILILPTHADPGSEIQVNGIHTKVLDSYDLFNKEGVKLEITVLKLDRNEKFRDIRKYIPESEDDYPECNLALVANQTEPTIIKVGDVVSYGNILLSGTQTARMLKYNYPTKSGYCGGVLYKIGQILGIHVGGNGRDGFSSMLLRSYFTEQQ
Experimental: as §3
(§4) In the above table, all data is RVP serotype-14 unless otherwise noted in parentheses. All strains of human rhinovirus (HRV) were purchased from American Type Culture Collection (ATCC), except for serotype 14, which was produced from the infectious cDNA clone constructed and supplied to us by Dr. Roland Rueckert at the Institute for Molecular Virology, University of Wisconsin, Madison, Wisc. […] The data in the column designated kobs/I was measured from progress curves in enzyme start experiments.

[8] = target: T4, Recombinant Rhinovirus 3C protease (RVP) serotype 2 (Human rhinovirus 2, UniProt P04936); assay: Inhibition of Rhinovirus Protease (fluorescence resonance energy transfer assay), serotype 2; type: biochemical, human rhinovirus (HRV)
T4 construct: Recombinant Rhinovirus 3C proteases from serotypes 14, 16, 2 or 89; made in house
T4 sequence (P04936 1508-1690): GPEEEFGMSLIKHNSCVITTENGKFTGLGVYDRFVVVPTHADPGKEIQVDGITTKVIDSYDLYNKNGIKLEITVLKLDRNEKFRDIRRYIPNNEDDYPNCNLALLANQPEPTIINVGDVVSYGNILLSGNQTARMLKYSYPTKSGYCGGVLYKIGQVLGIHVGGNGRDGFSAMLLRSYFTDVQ
Experimental: as §3, §4

[9] = Cytotoxicity in mock-infected HI-HeLa cells (anticoxsackieviral assay, XTT); type: cell-based; conditions: human; mock-infected HI-HeLa cells; one day; XTT
Experimental: as §1, with “The ability of compounds to protect calls against CVB-3 infection was measured by the XTT dye reduction method, which is described in Weislow, O. S., R. Kiser, D. L. Fine, J. Bader, R. H. Shoemaker, and M. R. Boyd, 1989, J. Natl. Cancer Inst. 81:577-586, which is incorporated herein by reference. Specifically,” for “Specifically,”
as §2

[10] = mock-infected HI-HeLa cells, two days, XTT, read-out: CC50
[11] = mock-infected HI-HeLa cells, one day, XTT, read-out: CC50
[12] = RVP serotype-14, 10 minute preincubation, substrate start, read-out: INHIB (Ki)
[13] = pH 7.6, progress curves in enzyme start experiments, read-out: kobs/I
[14] = progress curves in enzyme start experiments

Compound	Ki [1] [µM]	kinact/KI [1] [M⁻¹ s⁻¹]	EC50 (HRV-14; Rhinovirus B, HRV14, 48 h) [µM]	CC50 at 2 days [2, 10] [µM]	kobs/I ([1]; RVP serotype-14)	EC50 (CVB-3) [µM]	EC50 (HRV-14) [µM]	CC50 (HI-HeLa cells [3]; [10]) [µM]	CC50 (HI-HeLa cells [4]; [11]) [µM]	EC50 (CVB-3; 24 h) [µM]	CC50 at 1 day [9] [µM]	also measured
CCOC(=O)/C(F)=C\[C@H](CCC(N)=O)NC(=O)[C@H](Cc1ccccc1)NC(=O)[C@H](CC(C)C)NC(=O)OCc1ccccc1 [Compound 8, Ethyl-2-Fluoro-3-(CBZ-L-Leu-L-Phe-L-Gln)-E-Propenoate]	36	61	> 320	> 320	–	–	–	–	–	–	–	melting point: 210 to 211 °C
CC(C)C[C@H](NC(=O)OCc1ccccc1)C(=O)N[C@@H](Cc1ccccc1)C(=O)N[C@H](/C=C/C(=O)c1ccccc1)CCC(N)=O [Compound 24, 1-Phenyl-3-(CBZ-L-Leu-L-Phe-L-Gln)-E-Propenone]	–	–	–	–	500,000 M-1 sec-1	10	4	16	10	–	–	–
CC(C)C[C@H](NC(=O)OCc1ccccc1)C(=O)N[C@@H](Cc1ccccc1)C(=O)N[C@H](/C=C/C(=O)N(C)C)CCC(N)=O [Compound 22, N,N-Dimethyl-3-(CBZ-L-Leu-L-Phe-L-Gln)-E-Propenamide]	4.3	1300	56.2	251	–	–	–	–	–	–	–	melting point: 174 to 175 °C (dec.)
COC(=O)/C=C/[C@H](CCC(N)=O)NC(=O)[C@H](Cc1ccccc1)NC(=O)[C@H](CC(C)C)NC(=O)OCc1ccccc1 [Compound 11, Methyl-3-(CBZ-L-Leu-L-Phe-L-Gln)-E-Propenoate]	–	–	–	–	20,000 M-1 sec-1	8.9	1.3	–	> 320	–	–	Ki [1, 12]: 28 µM; CC50 (HI-HeLa cells [3]): > 320 µM; EC50 [5]: 0.0007 µM
CC(=O)/C=C/[C@H](CCC(N)=O)NC(=O)[C@H](Cc1ccccc1)NC(=O)[C@H](CC(C)C)NC(=O)OCc1ccccc1 [Compound 13, 4-(CBZ-L-Leu-L-Phe-L-Gln)-E-3-Butene-2-one]	6.5	54000	2	58.9	–	–	–	–	–	> 100	> 100	kinact/KI [6, 13]: 5500 M⁻¹ s⁻¹; kinact/KI [7]: 9000 M⁻¹ s⁻¹; kinact/KI [8, 13]: 2400 M⁻¹ s⁻¹; EC50 ([5]; Epithelial cell): 0.0004 µM
Cc1cc(CCCCCOc2c(Cl)cc(C3=NCCO3)cc2Cl)on1 [WIN 54954, reference compound]	–	–	–	–	–	> 100	2.13	> 63	> 100	–	–	–
CC(C)C[C@H](NC(=O)OCc1ccccc1)C(=O)N[C@@H](Cc1ccccc1)C(=O)N[C@H](/C=C/C(=O)N1CC=CC1)CCC(N)=O [Compound 41]	–	–	–	–	8,464 M-1 sec-1	> 100	56	–	–	–	–	CC50 (HI-HeLa cells [3]): 56 µM; CC50 (HI-HeLa cells [4]): > 100 µM
CC(C)C[C@H](NC(=O)OCc1ccccc1)C(=O)N[C@@H](Cc1ccccc1)C(=O)N[C@H](/C=C/C(=O)N1CCCC1)CCC(N)=O [Compound 21, 1-Pyrrolidin-1-yl-3-(CBZ-L-Leu-L-Phe-L-Gln)-E-Propenone]	9.9	2100	22.4	> 100	–	–	–	–	–	158	> 320	–
CCOC(=O)c1ccc(OCCC2CCN(c3ccc(C)nn3)CC2)cc1 [Pirodavir, reference compound]	–	–	0.03	–	–	–	–	–	–	> 100	> 100	CC50 at 2 days [2]: > 10 µM; EC50 ([5]; Epithelial cell): 0.0075 µM
CCOC(=O)/C=C/[C@H](CCC(N)=O)NC(=O)[C@H](Cc1ccccc1)NC(=O)[C@H](CC(C)C)NC(=O)OCc1ccccc1 [Compound 3, Ethyl-3-(CBZ-L-Leu-L-Phe-L-Gln)-E-Propenoate]	–	–	–	–	37,000 M-1 sec-1	39.8	0.61	–	–	–	–	kobs/I [6, 14]: 3,400 M-1 sec-1; INHIB (percent inhibition) ([1]; RVP serotype-14, 0.1 μM compound, 10 minute preincubation with 50 nM RVP): 81(0.1) percent; kobs/I [8, 14]: 1,900 M-1 sec-1; CC50 (HI-HeLa cells [3]): > 320 µM; CC50 (HI-HeLa cells [4]): > 320 µM; EC50 [5]: 0.04 µM
CC(C)C[C@H](NC(=O)OCc1ccccc1)C(=O)N[C@@H](Cc1ccccc1)C(=O)N[C@H](/C=C/c1ccccn1)CCC(N)=O [Compound 23]	–	–	–	–	120 M⁻¹ s⁻¹	> 100	> 100	> 100	> 100	–	–	Ki [1, 12]: 177 µM
CON(C)C(=O)/C=C/[C@H](CCC(N)=O)NC(=O)[C@H](Cc1ccccc1)NC(=O)[C@H](CC(C)C)NC(=O)OCc1ccccc1 [Compound 37]	18.8	5900	4	> 100	–	–	–	–	–	17.8	> 100	–
CCOC(=O)/C=C/[C@H](CCC(N)=O)NC(=O)[C@H](Cc1ccc(F)cc1)NC(=O)c1cc2c(OC)cccc2[nH]1 [Compound 27]	–	–	–	–	3,000 M-1 sec-1	20	3.5	160	103	–	–	Ki [1, 12]: 20 µM; EC50 [5]: 0.07 µM
